Measured values taken from patent publication US9340590B2 (priority 2011, dated 2016).
Read-outs that look alike come from different tables or passages of the source. Positions of bridges follow the written chain, without caps; N, C: chain ends. Non-standard residues stand in square brackets, D forms with d. Residues, ends and D or L forms follow the SMILES beside them. Trp(1-Me) = Cn1cc(C[C@H](N)C(=O)O)c2ccccc21; 2Pal = N[C@@H](Cc1ccccn1)C(=O)O; Phg = N[C@H](C(=O)O)c1ccccc1

Legend:
Test in all cases: cell-based
hNav1.7 = hNav1.7 (Homo sapiens, UniProt Q15858); format: cell-based; conditions: IonWorks Quattro, use-dependent, […]
hNav1.7, sequence (Q15858 whole entry, looked up): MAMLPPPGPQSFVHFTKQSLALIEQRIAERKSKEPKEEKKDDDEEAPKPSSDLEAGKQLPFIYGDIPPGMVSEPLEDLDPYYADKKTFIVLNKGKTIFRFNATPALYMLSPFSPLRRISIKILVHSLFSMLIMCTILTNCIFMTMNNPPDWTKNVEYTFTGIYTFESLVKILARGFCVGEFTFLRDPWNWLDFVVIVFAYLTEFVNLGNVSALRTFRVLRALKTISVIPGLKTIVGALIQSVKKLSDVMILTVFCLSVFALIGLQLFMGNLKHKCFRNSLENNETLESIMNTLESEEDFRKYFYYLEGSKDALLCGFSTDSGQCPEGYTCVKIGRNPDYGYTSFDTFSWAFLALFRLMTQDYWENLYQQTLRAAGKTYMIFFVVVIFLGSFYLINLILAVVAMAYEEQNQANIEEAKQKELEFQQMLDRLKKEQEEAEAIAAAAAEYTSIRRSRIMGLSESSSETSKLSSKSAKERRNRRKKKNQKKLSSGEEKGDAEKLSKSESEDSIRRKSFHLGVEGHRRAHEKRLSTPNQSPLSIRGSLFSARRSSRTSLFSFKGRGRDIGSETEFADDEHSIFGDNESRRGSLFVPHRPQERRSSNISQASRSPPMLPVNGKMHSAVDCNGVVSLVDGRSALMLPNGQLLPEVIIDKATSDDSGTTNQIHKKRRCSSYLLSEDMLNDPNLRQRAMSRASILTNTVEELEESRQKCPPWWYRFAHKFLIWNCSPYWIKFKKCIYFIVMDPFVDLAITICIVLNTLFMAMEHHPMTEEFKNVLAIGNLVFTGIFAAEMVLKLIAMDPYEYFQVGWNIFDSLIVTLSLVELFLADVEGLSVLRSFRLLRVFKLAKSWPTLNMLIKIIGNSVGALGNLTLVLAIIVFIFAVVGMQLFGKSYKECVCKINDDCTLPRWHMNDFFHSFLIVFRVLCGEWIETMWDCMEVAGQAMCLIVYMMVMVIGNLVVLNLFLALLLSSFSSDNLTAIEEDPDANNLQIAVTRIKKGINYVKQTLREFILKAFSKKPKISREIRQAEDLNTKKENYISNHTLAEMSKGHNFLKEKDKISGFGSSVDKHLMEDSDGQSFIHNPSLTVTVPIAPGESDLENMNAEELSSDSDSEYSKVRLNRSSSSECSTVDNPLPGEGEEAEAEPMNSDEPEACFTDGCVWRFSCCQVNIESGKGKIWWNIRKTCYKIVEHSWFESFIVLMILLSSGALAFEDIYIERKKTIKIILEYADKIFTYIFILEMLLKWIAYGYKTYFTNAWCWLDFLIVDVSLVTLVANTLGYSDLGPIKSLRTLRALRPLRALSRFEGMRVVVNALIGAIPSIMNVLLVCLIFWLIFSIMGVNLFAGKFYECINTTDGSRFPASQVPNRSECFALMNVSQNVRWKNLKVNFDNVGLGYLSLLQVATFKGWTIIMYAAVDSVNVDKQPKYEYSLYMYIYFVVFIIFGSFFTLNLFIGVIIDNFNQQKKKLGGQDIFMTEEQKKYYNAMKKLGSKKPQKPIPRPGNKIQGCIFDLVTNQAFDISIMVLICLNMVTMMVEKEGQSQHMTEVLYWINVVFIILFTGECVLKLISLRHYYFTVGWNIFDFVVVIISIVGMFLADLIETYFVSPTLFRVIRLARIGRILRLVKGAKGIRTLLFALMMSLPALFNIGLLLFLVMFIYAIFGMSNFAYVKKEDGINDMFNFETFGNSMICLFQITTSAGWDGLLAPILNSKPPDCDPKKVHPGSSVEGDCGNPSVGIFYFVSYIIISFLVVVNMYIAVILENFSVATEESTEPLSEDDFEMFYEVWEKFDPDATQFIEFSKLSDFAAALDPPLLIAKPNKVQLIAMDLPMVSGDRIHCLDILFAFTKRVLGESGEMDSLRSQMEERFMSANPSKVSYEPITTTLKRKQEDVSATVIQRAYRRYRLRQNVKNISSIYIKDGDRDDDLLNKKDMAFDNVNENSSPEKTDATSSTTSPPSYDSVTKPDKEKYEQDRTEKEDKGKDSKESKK

hNav1.5 = hNav1.5 (Homo sapiens, UniProt Q14524)
hNav1.3 = hNav1.3 (Homo sapiens, UniProt Q9NY46); conditions: IonWorks Quattro, use-dependent; […]; read-out: IWQ Use Nav1.3
hNav1.3, sequence (Q9NY46 whole entry, looked up): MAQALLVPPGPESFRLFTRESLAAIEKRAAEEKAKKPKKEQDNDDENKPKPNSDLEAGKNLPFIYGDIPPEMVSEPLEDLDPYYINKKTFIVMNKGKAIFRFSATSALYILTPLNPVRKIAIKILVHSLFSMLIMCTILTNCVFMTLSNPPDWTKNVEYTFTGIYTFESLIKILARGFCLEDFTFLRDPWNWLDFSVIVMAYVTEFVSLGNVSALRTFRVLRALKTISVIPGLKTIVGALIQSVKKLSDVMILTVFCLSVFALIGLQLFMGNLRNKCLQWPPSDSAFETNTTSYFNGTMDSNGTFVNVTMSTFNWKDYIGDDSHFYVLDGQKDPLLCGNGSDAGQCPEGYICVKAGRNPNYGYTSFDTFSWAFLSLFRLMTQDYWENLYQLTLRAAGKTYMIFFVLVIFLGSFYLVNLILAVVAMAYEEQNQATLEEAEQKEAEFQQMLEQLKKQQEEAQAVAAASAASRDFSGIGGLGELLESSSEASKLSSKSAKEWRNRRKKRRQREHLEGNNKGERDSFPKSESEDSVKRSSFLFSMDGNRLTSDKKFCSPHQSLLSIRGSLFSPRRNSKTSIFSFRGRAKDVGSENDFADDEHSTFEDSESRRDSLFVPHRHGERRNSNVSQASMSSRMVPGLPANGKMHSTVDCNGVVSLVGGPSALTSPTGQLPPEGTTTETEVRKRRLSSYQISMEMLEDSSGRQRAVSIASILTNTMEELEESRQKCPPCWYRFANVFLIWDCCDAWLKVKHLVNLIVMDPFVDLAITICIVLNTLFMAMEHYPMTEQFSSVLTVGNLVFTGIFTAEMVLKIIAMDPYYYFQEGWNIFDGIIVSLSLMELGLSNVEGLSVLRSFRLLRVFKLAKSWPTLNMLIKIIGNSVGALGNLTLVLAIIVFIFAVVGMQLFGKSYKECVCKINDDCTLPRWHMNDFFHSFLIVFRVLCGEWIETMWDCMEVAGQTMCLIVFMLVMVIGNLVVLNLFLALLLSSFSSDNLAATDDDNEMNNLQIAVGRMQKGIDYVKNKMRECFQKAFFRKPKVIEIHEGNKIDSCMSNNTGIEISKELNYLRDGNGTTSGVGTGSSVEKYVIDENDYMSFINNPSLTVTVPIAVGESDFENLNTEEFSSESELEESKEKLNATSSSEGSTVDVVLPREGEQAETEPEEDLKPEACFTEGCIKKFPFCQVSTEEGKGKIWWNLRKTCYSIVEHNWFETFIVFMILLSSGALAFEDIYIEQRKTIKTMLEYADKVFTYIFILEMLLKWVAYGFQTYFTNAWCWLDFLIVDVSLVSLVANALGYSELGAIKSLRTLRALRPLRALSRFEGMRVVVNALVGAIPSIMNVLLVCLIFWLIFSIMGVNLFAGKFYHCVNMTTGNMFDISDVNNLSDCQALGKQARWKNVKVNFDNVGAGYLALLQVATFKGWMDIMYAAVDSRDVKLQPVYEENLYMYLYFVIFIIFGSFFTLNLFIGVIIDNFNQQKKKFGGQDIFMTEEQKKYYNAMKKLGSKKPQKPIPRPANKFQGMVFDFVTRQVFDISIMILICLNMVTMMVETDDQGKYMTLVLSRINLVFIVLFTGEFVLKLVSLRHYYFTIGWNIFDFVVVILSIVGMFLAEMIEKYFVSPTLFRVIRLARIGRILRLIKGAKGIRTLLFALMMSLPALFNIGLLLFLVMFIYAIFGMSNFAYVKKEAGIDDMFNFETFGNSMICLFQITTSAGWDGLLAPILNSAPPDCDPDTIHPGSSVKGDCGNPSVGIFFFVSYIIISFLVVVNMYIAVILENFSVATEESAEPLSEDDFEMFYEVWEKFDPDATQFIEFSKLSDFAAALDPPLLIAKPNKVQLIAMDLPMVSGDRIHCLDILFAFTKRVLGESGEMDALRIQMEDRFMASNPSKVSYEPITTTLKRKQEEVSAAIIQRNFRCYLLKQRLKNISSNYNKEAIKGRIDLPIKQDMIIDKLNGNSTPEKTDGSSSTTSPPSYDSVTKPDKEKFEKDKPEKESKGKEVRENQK

[1] = IonWorks Quattro, use-dependent, […], read-out: IWQ Use Nav1.5

| Structure (SMILES) | IC50 (hNav1.7; read-out: IWQ Use Nav1.7) [µM] | IC50 (hNav1.5; [1]) [µM] | IC50 (hNav1.3) [µM] | IC50 (hNav1.7; read-out: IWQ Use Nav1.7 (μm)) [µM] | IC50 (hNav1.5; IWQ Use Nav1.5 (μM)) [µM] |
| --- | --- | --- | --- | --- | --- |
| CC[C@H](C)[C@@H]1NC(=O)[C@@H]2CSSC[C@@H]3NC(=O)[C@H](C(C)C)NC(=O)[C@H](CC(C)C)NC(=O)[C@H](CC(N)=O)NC(=O)[C@@H]4CCCN4C(=O)[C@H](CCCNC(=N)N)NC(=O)[C@H](CSSC[C@H](NC(=O)[C@@H](N)CC(=O)O)C(=O)N[C@@H](CC(C)C)C(=O)NCC(=O)N[C@@H](Cc4ccccc4)C(=O)N[C@@H](CCSC)C(=O)N[C@@H](CCCNC(=N)N)C(=O)N[C@@H](CCCCN)C(=O)N2)NC(=O)[C@H](CSSC[C@@H](C(=O)N[C@@H](CCCCN)C(=O)N[C@@H](Cc2ccc(O)cc2)C(=O)N[C@H](C(=O)N[C@H](C(N)=O)c2ccccc2)C(C)C)NC(=O)[C@H](Cc2c[nH]c4ccccc24)NC(=O)[C@H](CCCCN)NC(=O)[C@H](Cc2c[nH]cn2)NC(=O)[C@H]([C@@H](C)O)NC(=O)[C@H](CCCNC(=N)N)NC(=O)[C@H](CO)NC3=O)NC(=O)[C@H](CCCCN)NC(=O)[C@H](CC(=O)O)NC(=O)[C@H](CC(N)=O)NC(=O)[C@H](CC(=O)O)NC(=O)[C@@H]2CCCN2C1=O [compound 406] (H-DCLGFMRKCIPDNDKCCRPNLVCSRTHKWCKYV[Phg]-NH2; disulfide 2-17, 9-23, 16-30) | 0.04 | 5.95 | 0.02 |  |  |
| CC[C@H](C)[C@@H]1NC(=O)[C@@H]2CSSC[C@@H]3NC(=O)[C@H](C(C)C)NC(=O)[C@H](CC(C)C)NC(=O)[C@H](CC(N)=O)NC(=O)[C@@H]4CCCN4C(=O)[C@H](CCCNC(=N)N)NC(=O)[C@H](CSSC[C@H](NC(=O)[C@@H](N)CC(=O)O)C(=O)N[C@@H](CC(C)C)C(=O)NCC(=O)N[C@@H](Cc4ccccc4)C(=O)N[C@@H](CCSC)C(=O)N[C@@H](CCCNC(=N)N)C(=O)N[C@@H](CCCCN)C(=O)N2)NC(=O)[C@H](CSSC[C@@H](C(=O)N[C@@H](CCCCN)C(=O)N[C@@H](Cc2ccc(O)cc2)C(=O)N[C@H](C(=O)N(C)[C@@H](Cc2ccccc2)C(N)=O)C(C)C)NC(=O)[C@H](Cc2c[nH]c4ccccc24)NC(=O)[C@H](CCCCN)NC(=O)[C@H](Cc2c[nH]cn2)NC(=O)[C@H]([C@@H](C)O)NC(=O)[C@H](CCCNC(=N)N)NC(=O)[C@H](CO)NC3=O)NC(=O)[C@H](CCCCN)NC(=O)[C@H](CC(=O)O)NC(=O)[C@H](CC(N)=O)NC(=O)[C@H](CC(=O)O)NC(=O)[C@@H]2CCCN2C1=O [compound 408] | 10 | 18.8 | 4.56 |  |  |
| CC[C@H](C)[C@@H]1NC(=O)[C@@H]2CSSC[C@@H]3NC(=O)[C@H](C(C)C)NC(=O)[C@H](CC(C)C)NC(=O)[C@H](CC(N)=O)NC(=O)[C@@H]4CCCN4C(=O)[C@H](CCCNC(=N)N)NC(=O)[C@H](CSSC[C@H](NC(=O)[C@@H](N)CC(=O)O)C(=O)N[C@@H](CC(C)C)C(=O)NCC(=O)N[C@@H](Cc4ccccc4)C(=O)N[C@@H](CCSC)C(=O)N[C@@H](CCCNC(=N)N)C(=O)N[C@@H](CCCCN)C(=O)N2)NC(=O)[C@H](CSSC[C@@H](C(=O)N[C@@H](CCCCN)C(=O)N[C@@H](Cc2ccc(O)cc2)C(=O)N[C@H](C(=O)N[C@@H](Cc2cn(C)c4ccccc24)C(N)=O)C(C)C)NC(=O)[C@H](Cc2c[nH]c4ccccc24)NC(=O)[C@H](CCCCN)NC(=O)[C@H](Cc2c[nH]cn2)NC(=O)[C@H]([C@@H](C)O)NC(=O)[C@H](CCCNC(=N)N)NC(=O)[C@H](CO)NC3=O)NC(=O)[C@H](CCCCN)NC(=O)[C@H](CC(=O)O)NC(=O)[C@H](CC(N)=O)NC(=O)[C@H](CC(=O)O)NC(=O)[C@@H]2CCCN2C1=O [compound 409] (H-DCLGFMRKCIPDNDKCCRPNLVCSRTHKWCKYV[Trp(1-Me)]-NH2; disulfide 2-17, 9-23, 16-30) | 0.09 | 5.61 | 0.07 |  |  |
| CC[C@H](C)[C@@H]1NC(=O)[C@@H]2CSSC[C@@H]3NC(=O)[C@H](C(C)C)NC(=O)[C@H](CC(C)C)NC(=O)[C@H](CC(N)=O)NC(=O)[C@@H]4CCCN4C(=O)[C@H](CCCNC(=N)N)NC(=O)[C@H](CSSC[C@H](NC(=O)[C@@H](N)CC(=O)O)C(=O)N[C@@H](CC(C)C)C(=O)NCC(=O)N[C@@H](Cc4ccccc4)C(=O)N[C@@H](CCSC)C(=O)N[C@@H](CCCNC(=N)N)C(=O)N[C@@H](CCCCN)C(=O)N2)NC(=O)[C@H](CSSC[C@@H](C(=O)N[C@@H](CCCCN)C(=O)N[C@@H](Cc2ccc(O)cc2)C(=O)N[C@H](C(=O)N[C@@H](Cc2ccc(C(=O)O)cc2)C(N)=O)C(C)C)NC(=O)[C@H](Cc2c[nH]c4ccccc24)NC(=O)[C@H](CCCCN)NC(=O)[C@H](Cc2c[nH]cn2)NC(=O)[C@H]([C@@H](C)O)NC(=O)[C@H](CCCNC(=N)N)NC(=O)[C@H](CO)NC3=O)NC(=O)[C@H](CCCCN)NC(=O)[C@H](CC(=O)O)NC(=O)[C@H](CC(N)=O)NC(=O)[C@H](CC(=O)O)NC(=O)[C@@H]2CCCN2C1=O [compound 410] | 9.19 | 7.11 | 6.31 |  |  |
| CC[C@H](C)[C@@H]1NC(=O)[C@@H]2CSSC[C@@H]3NC(=O)[C@H](C(C)C)NC(=O)[C@H](CC(C)C)NC(=O)[C@H](CC(N)=O)NC(=O)[C@@H]4CCCN4C(=O)[C@H](CCCNC(=N)N)NC(=O)[C@H](CSSC[C@H](NC(=O)[C@@H](N)CC(=O)O)C(=O)N[C@@H](CC(C)C)C(=O)NCC(=O)N[C@@H](Cc4ccccc4)C(=O)N[C@@H](CCSC)C(=O)N[C@@H](CCCNC(=N)N)C(=O)N[C@@H](CCCCN)C(=O)N2)NC(=O)[C@H](CSSC[C@@H](C(=O)N[C@@H](CCCCN)C(=O)N[C@@H](Cc2ccc(O)cc2)C(=O)N[C@H](C(=O)N[C@@H](Cc2ccccn2)C(N)=O)C(C)C)NC(=O)[C@H](Cc2c[nH]c4ccccc24)NC(=O)[C@H](CCCCN)NC(=O)[C@H](Cc2c[nH]cn2)NC(=O)[C@H]([C@@H](C)O)NC(=O)[C@H](CCCNC(=N)N)NC(=O)[C@H](CO)NC3=O)NC(=O)[C@H](CCCCN)NC(=O)[C@H](CC(=O)O)NC(=O)[C@H](CC(N)=O)NC(=O)[C@H](CC(=O)O)NC(=O)[C@@H]2CCCN2C1=O [compound 411] (H-DCLGFMRKCIPDNDKCCRPNLVCSRTHKWCKYV[2Pal]-NH2; disulfide 2-17, 9-23, 16-30) | 5.82 | 8.16 | 4.83 |  |  |
| CC[C@H](C)[C@@H]1NC(=O)[C@@H]2CSSC[C@@H]3NC(=O)[C@H](C(C)C)NC(=O)[C@H](CC(C)C)NC(=O)[C@H](CC(N)=O)NC(=O)[C@@H]4CCCN4C(=O)[C@H](CCCNC(=N)N)NC(=O)[C@H](CSSC[C@H](NC(=O)[C@@H](N)CC(=O)O)C(=O)N[C@@H](CC(C)C)C(=O)NCC(=O)N[C@@H](Cc4ccccc4)C(=O)N[C@@H](CCSC)C(=O)N[C@@H](CCCNC(=N)N)C(=O)N[C@@H](CCCCN)C(=O)N2)NC(=O)[C@H](CSSC[C@@H](C(=O)N[C@@H](CCCCN)C(=O)N[C@@H](Cc2ccc(O)cc2)C(=O)N[C@H](C(=O)N[C@@H](Cc2ccccc2)C(=O)N[C@@H](Cc2ccc(C(=O)O)cc2)C(N)=O)C(C)C)NC(=O)[C@H](Cc2c[nH]c4ccccc24)NC(=O)[C@H](CCCCN)NC(=O)[C@H](Cc2c[nH]cn2)NC(=O)[C@H]([C@@H](C)O)NC(=O)[C@H](CCCNC(=N)N)NC(=O)[C@H](CO)NC3=O)NC(=O)[C@H](CCCCN)NC(=O)[C@H](CC(=O)O)NC(=O)[C@H](CC(N)=O)NC(=O)[C@H](CC(=O)O)NC(=O)[C@@H]2CCCN2C1=O [compound 413] |  | 8.65 | 5.35 | 1.15 |  |
| CC[C@H](C)[C@@H]1NC(=O)[C@@H]2CSSC[C@@H]3NC(=O)[C@H](C(C)C)NC(=O)[C@H](CC(C)C)NC(=O)[C@H](CC(N)=O)NC(=O)[C@@H]4CCCN4C(=O)[C@H](CCCNC(=N)N)NC(=O)[C@H](CSSC[C@H](NC(=O)[C@@H](N)CC(=O)O)C(=O)N[C@@H](CC(C)C)C(=O)NCC(=O)N[C@@H](Cc4ccccc4)C(=O)N[C@@H](CCSC)C(=O)N[C@@H](CCCNC(=N)N)C(=O)N[C@@H](CCCCN)C(=O)N2)NC(=O)[C@H](CSSC[C@@H](C(=O)N[C@@H](CCCCN)C(=O)N[C@@H](Cc2ccc(O)cc2)C(=O)N[C@H](C(=O)N[C@@H](Cc2ccccc2)C(=O)N[C@@H](Cc2ccccn2)C(N)=O)C(C)C)NC(=O)[C@H](Cc2c[nH]c4ccccc24)NC(=O)[C@H](CCCCN)NC(=O)[C@H](Cc2c[nH]cn2)NC(=O)[C@H]([C@@H](C)O)NC(=O)[C@H](CCCNC(=N)N)NC(=O)[C@H](CO)NC3=O)NC(=O)[C@H](CCCCN)NC(=O)[C@H](CC(=O)O)NC(=O)[C@H](CC(N)=O)NC(=O)[C@H](CC(=O)O)NC(=O)[C@@H]2CCCN2C1=O [compound 414] |  | 9.29 | 0.63 | 0.26 |  |
| CC[C@H](C)[C@@H]1NC(=O)[C@@H]2CSSC[C@@H]3NC(=O)[C@H](C(C)C)NC(=O)[C@H](CC(C)C)NC(=O)[C@H](CC(N)=O)NC(=O)[C@@H]4CCCN4C(=O)[C@H](CCCNC(=N)N)NC(=O)[C@H](CSSC[C@H](NC(=O)[C@@H](N)CC(=O)O)C(=O)N[C@@H](CC(C)C)C(=O)NCC(=O)N[C@@H](Cc4ccccc4)C(=O)N[C@@H](CCSC)C(=O)N[C@@H](CCCNC(=N)N)C(=O)N[C@@H](CCCCN)C(=O)N2)NC(=O)[C@H](CSSC[C@@H](C(=O)N[C@@H](CCCCN)C(N)=O)NC(=O)[C@H](Cc2c[nH]c4ccccc24)NC(=O)[C@H](CCCCN)NC(=O)[C@H](Cc2cnc[nH]2)NC(=O)[C@H]([C@@H](C)O)NC(=O)[C@H](CCCNC(=N)N)NC(=O)[C@H](CO)NC3=O)NC(=O)[C@H](CCCCN)NC(=O)[C@H](CC(=O)O)NC(=O)[C@H](CC(N)=O)NC(=O)[C@H](CC(=O)O)NC(=O)[C@@H]2CCCN2C1=O [compound 417] (H-DCLGFMRKCIPDNDKCCRPNLVCSRTHKWCK-NH2; disulfide 2-17, 9-23, 16-30) |  |  | 9.09 | 18.3 | 11.9 |
